Entries after “also recorded” stand apart in the source; their conditions may differ.

The test system of experiment [1] is GluA1-4i and TARP γ-2 or GluA1-4o and TARP γ-2. Description: Ca2+ influx assay, AMPA-R subunit selectivity. In kind it is cell-based, human. On the procedure:
Human GluA1/flip and human stargazin co-expressing CHO cells were plated at 3×10^4 cells/well in 96-well Black Clear plate (Corning Incorporated, Corning, NY). For subunit selectivity study, human AMPA-Rs (GluA1-4i, GluA1-4o and GluA1i mutants) and human TARPs γ2 co-expressing CHO cells were plated. For evaluation of the species difference, rat GluA1/flip expressing CHO cells were plated. For mutant channels, Human GluA1i S743A mutant was generated by In-Fusion HD Cloning Kit (Takara Bio Inc., Kusatsu, Japan) according to manufacturer's protocol. Each hGluA1i mutant vector was transiently introduced to CHO cells by Gene Pulser II Electroporation System (Bio-Rad Laboratories, Inc., Hercules, CA) and incubated for 6 h in 5% CO2 at 37°C. Then, cells were harvested and plated. These cells were seeded at 3×10^4 cells/well in 96-well Black Clear plate and incubated for 24 h in 5% CO2 at 37°C. […] Relative increases of intracellular Ca^2+ levels by compounds in the presence and absence of 3 mM L-glutamate were monitored for 3 min by fluorometric imaging plate reader (CellLux, Perkin Elmer Life and Analytical Sciences, Inc., Shelton, CT). Activity of compound was defined as integration value of fluorescence value of each detection point. […] EC50 values were calculated by logistic regression analysis. […]

The test system of experiment [2] is poly-I:C mouse. Description: Social approach-avoidance test in poly-I:C mouse. Particulars: 0.3 mg/kg, p.o., 1 h prior to test. In kind it is in vivo. As for the experimental part: Poly-I:C (5 mg/kg) dissolved in sterile pyrogen-free 0.9% NaCl (control) solution was administered to pregnant female C57BL/6J mice on gestation day 15 (GD15) via the intravenous route at the tail vein with a volume of 5 ml/kg.
The apparatus was a three-chamber gray acryl box (53 × 19 × 21.5 cm, outer chamber: 19.3 × 19 × 21.5 cm), and dividing walls were made from clear acryl plates with gates. In the two outer chambers, transparent acryl cylinders with small holes (cylinder: 8.2 cm φ × 20.5 cm, hole: 1.3 cm φ) were placed to avoid direct physical interaction between a target animal and a test animal. Target animals were C57BL/6 J mice of the same age as test animals and no previous contact with them. On the test day, TAK-653 (0.3 mg/kg, p.o.) or vehicle was administered 1 h before the testing session. Each test animal was introduced in the middle chamber of test apparatus for 3 min with the gates being closed by partitions. Then the partitions were removed gently for the test animal to explore all three chambers freely for 5 min. Sniffing index was calculated as the index of sociability using the following equation:
Sniffing index = (Sniffing time to cylinder containing target mouse (s) − Sniffing time to empty cylinder (s))/ (Total sniffing time (s)).

Experiment [3] relates to cynomolgus monkeys. Description: Delayed match-to-sample (DMTS) task. In kind it is in vivo, cynomolgus monkey (Macaca fascicularis). The settings on record: 0.06 mg/kg, p.o., 6 h prior to testing. As for the experimental part: DMTS tasks were performed using 4–6 years old male cynomolgus monkeys (Macaca fascicularis) weighing 4–6 kg as previously described, using a Cambridge Neuropsychological Test Automated Battery (CANTAB) system (CeNes, Cambridge, UK). Monkeys were maintained at 80% of free-feeding body weight throughout the experiment. Details are described in the Supplementary Information.
The experiment was performed using 4-6 years old male cynomolgus monkeys (Macaca fascicularis) weighing 4-6 kg. Monkeys were maintained at 80% of free-feeding body weight throughout the experiment. Four monkeys were trained to perform DMTS task using a Cambridge Neuropsychological Test Automated Battery (CANTAB) system (CeNes, Cambridge, UK) (Weed et al., 1999). Briefly, a trial was initiated by presentation of an image of a sample object on the screen. The monkey had to touch this object on the screen within 30 s. Then, the sample object was diminished from the screen, and a variable delay (0, 4, 8, and 16 s) was ensured. After the delay, the sample object was re-presented together with three other objects. The monkey had to choose the sample object from the four objects and a collect choice was reinforced by the food reward. The ITI was 5 s and one session consisted of 96 trials (24 trials of each delay of 0, 4, 8, and 16 s). […] The correct responses were recorded for all trials during test sessions. […]

For experiment [4], the target named is T1, GluA1i S743A (Homo sapiens, UniProt P42261, S743A).
T1 construct: expressed in transfected cells; host or cells: CHO cells, transient electroporation
Description: Ca2+ influx assay in CHO cells expressing GluA1i S743A. Particulars: at each concentration of glutamate tested (0, 0.3 μM, 1 μM, 3 mM). It counts as cell-based. As for the experimental part:
Ca^2+ influx assays using human GluA1/flip and human stargazin co-expressing CHO cells plated at 3 × 10^4 cells/well in 96-well Black Clear plates (Corning Incorporated, Corning, NY) were performed as previously described, with some modifications. For evaluation of the species difference, rat GluA1/flip expressing CHO cells were plated. For mutant channels, the human GluA1i S743A mutant was generated using the In-Fusion HD Cloning Kit (Takara Bio Inc., Kusatsu, Japan) according to the manufacturer's protocol and transiently introduced to CHO cells by Gene Pulser II Electroporation System (Bio-Rad Laboratories, Inc., Hercules, CA). Relative increases of intracellular Ca^2+ levels were monitored for 3 min with a fluorometric imaging plate reader (CellLux, Perkin Elmer Life and Analytical Sciences, Inc., Shelton, CT). […]
Human GluA1/flip and human stargazin co-expressing CHO cells were plated at 3×10^4 cells/well in 96-well Black Clear plate (Corning Incorporated, Corning, NY). […] Relative increases of intracellular Ca^2+ levels by compounds in the presence and absence of 3 mM L-glutamate were monitored for 3 min by fluorometric imaging plate reader (CellLux, Perkin Elmer Life and Analytical Sciences, Inc., Shelton, CT). Activity of compound was defined as integration value of fluorescence value of each detection point. […] EC50 values were calculated by logistic regression analysis.

T1 sequence (P42261 19-906 isoform P42261-2 S743A limits assumed): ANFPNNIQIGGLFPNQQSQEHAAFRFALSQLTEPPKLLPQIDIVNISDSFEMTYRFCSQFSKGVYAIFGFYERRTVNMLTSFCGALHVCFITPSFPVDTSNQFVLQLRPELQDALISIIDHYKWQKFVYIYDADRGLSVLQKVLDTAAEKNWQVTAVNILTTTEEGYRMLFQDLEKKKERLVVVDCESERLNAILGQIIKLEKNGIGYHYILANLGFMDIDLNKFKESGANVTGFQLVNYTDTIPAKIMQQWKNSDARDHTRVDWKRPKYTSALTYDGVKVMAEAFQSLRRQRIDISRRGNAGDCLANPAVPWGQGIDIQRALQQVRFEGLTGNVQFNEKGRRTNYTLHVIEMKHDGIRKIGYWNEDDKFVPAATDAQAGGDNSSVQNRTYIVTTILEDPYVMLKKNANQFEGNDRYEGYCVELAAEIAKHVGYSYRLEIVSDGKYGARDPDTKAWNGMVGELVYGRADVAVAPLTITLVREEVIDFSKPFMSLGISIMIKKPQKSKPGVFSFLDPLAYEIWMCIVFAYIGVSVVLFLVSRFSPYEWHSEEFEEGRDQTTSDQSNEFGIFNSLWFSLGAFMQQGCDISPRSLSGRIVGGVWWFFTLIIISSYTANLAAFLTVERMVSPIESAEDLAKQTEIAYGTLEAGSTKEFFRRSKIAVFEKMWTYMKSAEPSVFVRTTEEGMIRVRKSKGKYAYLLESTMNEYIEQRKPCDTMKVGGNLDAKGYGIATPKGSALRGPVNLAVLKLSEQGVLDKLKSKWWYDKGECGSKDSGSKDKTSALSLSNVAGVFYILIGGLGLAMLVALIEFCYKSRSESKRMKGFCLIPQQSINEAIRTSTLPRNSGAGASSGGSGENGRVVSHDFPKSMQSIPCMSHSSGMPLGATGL
T1 sequence (Q9Y698 whole entry partner): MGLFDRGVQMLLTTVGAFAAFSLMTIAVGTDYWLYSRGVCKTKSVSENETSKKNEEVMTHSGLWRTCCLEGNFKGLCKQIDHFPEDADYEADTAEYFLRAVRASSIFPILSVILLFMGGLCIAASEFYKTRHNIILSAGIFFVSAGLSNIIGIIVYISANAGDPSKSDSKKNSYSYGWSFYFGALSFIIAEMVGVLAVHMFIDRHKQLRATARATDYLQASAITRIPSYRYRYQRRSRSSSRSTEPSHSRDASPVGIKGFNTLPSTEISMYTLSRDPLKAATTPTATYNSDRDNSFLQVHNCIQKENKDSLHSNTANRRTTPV

`CC1=CN2CCS(=O)(=O)N=C2C(c2ccc(OC3CCCCC3)cc2)=N1` [TAK-653, 9-[4-(Cyclohexyloxy)phenyl]-7-methyl-3,4-dihydropyrazino[2,1-c][1,2,4]thiadiazine 2,2-dioxide]: the “Subunit selectivity for homomeric AMPA-R” value in experiment [1] is listed as “did not show prominent subunit selectivity”. Moreover, in experiment [2], the Sniffing index result is recorded as “significantly improved”. Besides, in experiment [3], the “DMTS accuracy at 16-s delay interval” value was “significantly ameliorated; also recorded: significantly increased”. Moreover, the “Maximum responses in S743A GluA1i versus wild-type GluA1i CHO cells” value in experiment [4] is on record as “higher”.

Source of the values: paper PMC8282797, “Strictly regulated agonist-dependent activation of AMPA-R is the key characteristic of TAK-653 for robust synaptic responses and cognitive improvement” (Scientific Reports, 2021).
